One test addresses Carbonic anhydrase 1 (Homo sapiens, UniProt P00915). Kind of test: Esterase Activity Assay. Particulars: pH 7.4; 25 °C.
For a further test, the target named is Carbonic anhydrase 2 (Homo sapiens, UniProt P00918). Kind of test: Esterase Activity Assay. Particulars: pH 7.4; 25 °C.

Broadly, the Ki is the dissociation constant of the complex between target and ligand, obtained from inhibition or displacement. High values mean lower affinity, low ones higher affinity.

Chain of Carbonic anhydrase 1 (P00915 whole entry): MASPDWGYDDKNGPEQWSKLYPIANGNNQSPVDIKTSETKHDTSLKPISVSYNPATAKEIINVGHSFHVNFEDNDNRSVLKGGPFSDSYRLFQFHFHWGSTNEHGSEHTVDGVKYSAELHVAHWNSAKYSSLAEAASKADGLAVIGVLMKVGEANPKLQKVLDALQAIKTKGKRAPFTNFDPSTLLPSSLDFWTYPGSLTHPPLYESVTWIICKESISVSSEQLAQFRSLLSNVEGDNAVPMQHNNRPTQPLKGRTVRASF

For the compound `O=c1c(O)c(-c2ccc(O)c(O)c2)oc2cc(O)cc(O)c12` [2-(3,4-dihydroxyphenyl)-3,5,7-trihydroxy-chromone;hydrate], the Ki at Carbonic anhydrase 1 was 99 µM; at Carbonic anhydrase 2, 105 µM.
Take `O=C(O)c1ccc(O)cc1` [4-Hydroxybenzoate, III]: at Carbonic anhydrase 1, the affinity corresponds to a Ki of 1060 µM.
Still for that read-out and setting: with `O=c1oc2c(O)c(O)cc3c(=O)oc4c(O)c(O)cc1c4c23` [Elagic Acid] the figure was 207 µM.
`COc1cc(/C=C/C(=O)O)ccc1O` [Ferulic acid (M5)]: the figures for the Ki at Carbonic anhydrase 1 and at Carbonic anhydrase 2 were 408 µM and 210 µM, respectively.
For `O=C(O)c1cc(O)c(O)c(O)c1` [Gallic Acid, F], in that order: 1050 µM and 758 µM.
The matching figures for `COc1cc(C(=O)O)cc(OC)c1O` [Syringic acid]: 919 µM and 695 µM.
The matching figures for `O=C(O)/C=C/c1ccc(O)cc1` [p-Coumaric Acid]: 441 µM and 537 µM.

For the origin of these results see BindingDB's records for doi:10.1111/j.1747-0285.2010.00965.x (Ataturk University, 2010).
